Experimental data reported in article PMC7252619 (PLoS ONE, 2020).
Where two headings read alike, the source gives them in different places. Values belong to the molecule of their own block, whether it stands above or below them.

How the values were obtained:
[1] = biological target: T1, CDC7 (Homo sapiens, UniProt O00311); experiment: Kinase activity test (ReactionBiology), % enzyme activity relative to DMSO; assay type: biochemical; details: CDC7; for % Enzyme Activity (relative to DMSO controls), Data 1: replicate Data 1; for % Enzyme Activity (relative to DMSO controls), Data 2: replicate Data 2;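 as to all read-outs here: each drug screened at both 10 µM and 1 µM across a ten-kinase panel, activity expressed as percent of DMSO control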
T1 construct: purchased ReactionBiology
T1 sequence (O00311 whole entry): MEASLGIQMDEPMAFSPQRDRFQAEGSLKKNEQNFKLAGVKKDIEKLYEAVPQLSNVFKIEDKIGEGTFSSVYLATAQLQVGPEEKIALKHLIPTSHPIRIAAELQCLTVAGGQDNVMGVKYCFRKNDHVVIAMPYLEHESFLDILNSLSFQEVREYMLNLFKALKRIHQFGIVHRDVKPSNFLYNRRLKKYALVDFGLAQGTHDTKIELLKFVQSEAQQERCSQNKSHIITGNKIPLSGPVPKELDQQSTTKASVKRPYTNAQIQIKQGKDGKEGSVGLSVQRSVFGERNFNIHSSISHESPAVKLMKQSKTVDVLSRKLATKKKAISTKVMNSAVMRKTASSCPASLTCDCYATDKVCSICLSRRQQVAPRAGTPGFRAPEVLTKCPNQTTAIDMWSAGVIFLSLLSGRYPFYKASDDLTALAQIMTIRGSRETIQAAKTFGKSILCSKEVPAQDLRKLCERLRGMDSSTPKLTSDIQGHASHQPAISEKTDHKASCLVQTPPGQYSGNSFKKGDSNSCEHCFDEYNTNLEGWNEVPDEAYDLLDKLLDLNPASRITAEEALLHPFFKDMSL
T1 sequence (Q9UBU7 whole entry partner): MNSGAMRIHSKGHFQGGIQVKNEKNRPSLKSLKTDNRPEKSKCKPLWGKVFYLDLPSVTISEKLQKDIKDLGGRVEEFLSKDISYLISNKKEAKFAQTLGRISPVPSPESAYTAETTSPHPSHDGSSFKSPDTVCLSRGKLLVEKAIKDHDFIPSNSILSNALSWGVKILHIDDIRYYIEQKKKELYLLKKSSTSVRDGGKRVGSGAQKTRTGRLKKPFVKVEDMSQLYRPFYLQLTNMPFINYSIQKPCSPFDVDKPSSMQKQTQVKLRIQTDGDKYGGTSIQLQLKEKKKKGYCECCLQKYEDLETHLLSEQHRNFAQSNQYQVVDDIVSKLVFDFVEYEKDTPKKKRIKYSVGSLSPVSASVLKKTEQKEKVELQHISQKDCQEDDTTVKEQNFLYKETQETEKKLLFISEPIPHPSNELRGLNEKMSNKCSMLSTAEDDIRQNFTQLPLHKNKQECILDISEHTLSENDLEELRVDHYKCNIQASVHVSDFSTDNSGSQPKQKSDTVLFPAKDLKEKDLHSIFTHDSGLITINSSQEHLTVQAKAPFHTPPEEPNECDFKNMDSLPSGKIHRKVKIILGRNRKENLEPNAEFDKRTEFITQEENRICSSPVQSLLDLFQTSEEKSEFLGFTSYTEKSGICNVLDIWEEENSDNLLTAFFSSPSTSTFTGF

[2] = biological target: T2, CK1d (Homo sapiens, UniProt P48730); experiment: as above; assay type: biochemical; details: CK1d
T2 construct: purchased ReactionBiology
T2 sequence (P48730 whole entry): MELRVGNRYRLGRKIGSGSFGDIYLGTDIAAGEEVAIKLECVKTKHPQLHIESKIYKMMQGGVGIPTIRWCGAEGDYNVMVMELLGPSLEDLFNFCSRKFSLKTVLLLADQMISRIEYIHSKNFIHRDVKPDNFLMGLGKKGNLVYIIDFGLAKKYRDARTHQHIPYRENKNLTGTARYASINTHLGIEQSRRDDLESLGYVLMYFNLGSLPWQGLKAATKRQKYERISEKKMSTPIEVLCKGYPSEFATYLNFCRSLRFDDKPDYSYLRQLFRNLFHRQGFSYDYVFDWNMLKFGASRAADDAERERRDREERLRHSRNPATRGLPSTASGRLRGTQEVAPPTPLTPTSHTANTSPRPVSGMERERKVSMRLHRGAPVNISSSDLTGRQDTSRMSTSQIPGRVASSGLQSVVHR

[3] = biological target: T3, DAPK1 (Homo sapiens, UniProt P53355); experiment: as above; assay type: biochemical; details: DAPK1; for % Enzyme Activity (relative to DMSO controls), Data 1: replicate Data 1; for % Enzyme Activity (relative to DMSO controls), Data 2: replicate Data 2
T3 construct: purchased ReactionBiology
T3 sequence (P53355 whole entry): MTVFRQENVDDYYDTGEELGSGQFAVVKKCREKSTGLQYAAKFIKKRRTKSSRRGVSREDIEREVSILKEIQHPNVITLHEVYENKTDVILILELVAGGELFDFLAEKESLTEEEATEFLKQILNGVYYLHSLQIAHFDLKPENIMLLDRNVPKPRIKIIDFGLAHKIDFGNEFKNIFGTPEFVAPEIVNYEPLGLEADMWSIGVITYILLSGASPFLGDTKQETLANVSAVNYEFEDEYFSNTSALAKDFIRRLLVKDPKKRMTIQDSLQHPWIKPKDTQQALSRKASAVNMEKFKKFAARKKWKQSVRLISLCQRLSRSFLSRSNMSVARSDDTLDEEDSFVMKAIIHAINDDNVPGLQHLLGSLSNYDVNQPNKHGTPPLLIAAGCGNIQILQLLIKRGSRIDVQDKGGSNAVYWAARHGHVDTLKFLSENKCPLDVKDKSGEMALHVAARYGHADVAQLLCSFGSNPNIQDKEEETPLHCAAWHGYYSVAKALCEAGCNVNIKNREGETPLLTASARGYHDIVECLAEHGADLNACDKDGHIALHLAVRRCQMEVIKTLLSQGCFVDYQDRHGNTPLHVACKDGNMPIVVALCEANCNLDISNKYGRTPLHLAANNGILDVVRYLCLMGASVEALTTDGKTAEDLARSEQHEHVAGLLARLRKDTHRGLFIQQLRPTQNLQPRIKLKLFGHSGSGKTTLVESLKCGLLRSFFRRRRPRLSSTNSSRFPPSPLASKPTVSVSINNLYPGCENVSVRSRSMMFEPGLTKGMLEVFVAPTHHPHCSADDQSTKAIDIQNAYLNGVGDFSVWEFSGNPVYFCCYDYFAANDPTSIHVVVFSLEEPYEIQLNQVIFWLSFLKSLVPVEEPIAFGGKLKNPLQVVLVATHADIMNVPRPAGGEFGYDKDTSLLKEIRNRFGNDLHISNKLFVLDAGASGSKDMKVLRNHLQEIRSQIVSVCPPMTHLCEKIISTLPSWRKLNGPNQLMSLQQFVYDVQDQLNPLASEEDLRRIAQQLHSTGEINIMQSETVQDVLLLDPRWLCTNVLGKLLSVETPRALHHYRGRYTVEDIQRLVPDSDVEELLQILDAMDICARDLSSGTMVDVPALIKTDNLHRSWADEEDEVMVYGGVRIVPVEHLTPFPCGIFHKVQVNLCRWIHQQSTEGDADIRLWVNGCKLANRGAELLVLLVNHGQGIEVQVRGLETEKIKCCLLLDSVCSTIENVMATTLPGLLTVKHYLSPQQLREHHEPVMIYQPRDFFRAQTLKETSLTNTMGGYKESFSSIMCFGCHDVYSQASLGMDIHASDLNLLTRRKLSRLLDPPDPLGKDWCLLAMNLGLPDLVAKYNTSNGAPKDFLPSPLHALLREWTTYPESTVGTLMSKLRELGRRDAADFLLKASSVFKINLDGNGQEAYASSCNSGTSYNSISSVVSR

[4] = biological target: T4, EPHB4 (Homo sapiens, UniProt P54760); experiment: as above; assay type: biochemical; details: EPHB4; for % Enzyme Activity (relative to DMSO controls), Data 1: replicate Data 1; for % Enzyme Activity (relative to DMSO controls), Data 2: replicate Data 2;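 as to all read-outs here: EPHB4 was one of ten selected kinases in the screening panel, with enzyme activity expressed as a percentage of DMSO controls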
T4 construct: purchased ReactionBiology
T4 sequence (P54760 16-987): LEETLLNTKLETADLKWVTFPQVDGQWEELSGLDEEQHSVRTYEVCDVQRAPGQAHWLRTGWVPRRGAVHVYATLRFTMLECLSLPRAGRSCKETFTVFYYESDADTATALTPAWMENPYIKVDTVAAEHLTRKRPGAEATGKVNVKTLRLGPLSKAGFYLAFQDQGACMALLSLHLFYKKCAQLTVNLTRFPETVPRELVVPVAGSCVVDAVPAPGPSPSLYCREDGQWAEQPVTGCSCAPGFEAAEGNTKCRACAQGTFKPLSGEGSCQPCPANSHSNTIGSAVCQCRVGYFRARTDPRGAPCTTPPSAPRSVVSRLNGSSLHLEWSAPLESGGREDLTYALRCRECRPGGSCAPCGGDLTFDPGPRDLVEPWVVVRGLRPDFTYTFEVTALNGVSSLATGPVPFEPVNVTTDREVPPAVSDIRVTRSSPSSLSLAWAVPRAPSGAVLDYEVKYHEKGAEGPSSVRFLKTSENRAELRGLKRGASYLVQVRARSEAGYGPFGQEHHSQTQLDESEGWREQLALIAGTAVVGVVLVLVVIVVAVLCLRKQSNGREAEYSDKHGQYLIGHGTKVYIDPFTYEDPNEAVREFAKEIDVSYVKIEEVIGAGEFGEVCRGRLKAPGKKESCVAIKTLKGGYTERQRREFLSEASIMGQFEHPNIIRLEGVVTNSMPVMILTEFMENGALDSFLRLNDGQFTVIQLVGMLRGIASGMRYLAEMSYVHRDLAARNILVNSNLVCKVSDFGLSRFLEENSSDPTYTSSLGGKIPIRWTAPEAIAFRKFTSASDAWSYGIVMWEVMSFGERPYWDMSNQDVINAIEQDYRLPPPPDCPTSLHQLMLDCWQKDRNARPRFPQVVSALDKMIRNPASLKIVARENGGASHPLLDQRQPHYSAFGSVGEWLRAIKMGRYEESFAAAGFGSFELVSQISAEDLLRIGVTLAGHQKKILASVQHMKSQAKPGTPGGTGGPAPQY

[5] = biological target: VEGFR2 (Homo sapiens, UniProt P35968); experiment: as above; assay type: biochemical; design: purchased ReactionBiology; details: VEGFR2;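 also: VEGFR2 was one member of a ten-kinase screening panel testing marketed FDA-approved drugs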
VEGFR2, sequence (P35968 20-1356): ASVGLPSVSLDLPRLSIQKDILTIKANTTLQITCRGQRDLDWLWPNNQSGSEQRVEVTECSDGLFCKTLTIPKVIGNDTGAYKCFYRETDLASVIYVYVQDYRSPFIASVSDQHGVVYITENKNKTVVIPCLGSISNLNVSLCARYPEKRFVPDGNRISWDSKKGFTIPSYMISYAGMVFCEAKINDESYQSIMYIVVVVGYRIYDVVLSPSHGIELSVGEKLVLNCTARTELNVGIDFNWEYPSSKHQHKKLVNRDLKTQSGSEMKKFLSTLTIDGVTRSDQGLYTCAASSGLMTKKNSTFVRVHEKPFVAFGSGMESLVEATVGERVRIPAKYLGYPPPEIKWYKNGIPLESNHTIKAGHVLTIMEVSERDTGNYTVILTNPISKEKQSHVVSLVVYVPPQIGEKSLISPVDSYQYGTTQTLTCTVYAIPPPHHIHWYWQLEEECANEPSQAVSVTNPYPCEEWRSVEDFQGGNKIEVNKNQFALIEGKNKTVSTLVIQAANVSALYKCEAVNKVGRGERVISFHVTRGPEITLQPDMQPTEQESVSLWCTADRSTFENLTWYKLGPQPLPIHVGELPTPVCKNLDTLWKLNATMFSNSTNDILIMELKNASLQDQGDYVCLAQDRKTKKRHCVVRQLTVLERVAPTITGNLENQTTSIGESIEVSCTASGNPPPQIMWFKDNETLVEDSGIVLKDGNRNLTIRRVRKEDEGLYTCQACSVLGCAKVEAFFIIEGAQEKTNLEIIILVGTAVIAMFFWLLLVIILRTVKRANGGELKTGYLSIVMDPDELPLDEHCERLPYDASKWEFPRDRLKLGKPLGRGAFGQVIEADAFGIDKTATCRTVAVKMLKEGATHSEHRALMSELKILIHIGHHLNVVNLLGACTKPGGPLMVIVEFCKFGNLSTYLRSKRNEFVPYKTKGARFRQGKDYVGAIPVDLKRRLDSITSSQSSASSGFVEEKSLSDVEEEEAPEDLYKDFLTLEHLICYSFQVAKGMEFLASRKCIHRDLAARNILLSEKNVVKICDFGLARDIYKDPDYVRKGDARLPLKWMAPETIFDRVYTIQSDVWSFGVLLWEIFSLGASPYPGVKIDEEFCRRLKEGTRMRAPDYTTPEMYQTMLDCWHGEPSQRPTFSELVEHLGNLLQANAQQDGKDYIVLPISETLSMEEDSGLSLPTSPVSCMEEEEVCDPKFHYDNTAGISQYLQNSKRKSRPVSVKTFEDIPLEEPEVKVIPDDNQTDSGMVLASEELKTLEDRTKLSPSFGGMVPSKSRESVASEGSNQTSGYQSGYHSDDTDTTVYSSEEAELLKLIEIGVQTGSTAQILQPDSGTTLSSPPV

[6] = biological target: T5, NEK2 (Homo sapiens, UniProt P51955); experiment: as above; assay type: biochemical; details: NEK2;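 also: FDA-approved drugs chosen by structure-based repositioning, each screened at 10 or 1 µM for kinase activity, expressed as percent of DMSO controls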
T5 construct: purchased ReactionBiology
T5 sequence (P51955 1-445): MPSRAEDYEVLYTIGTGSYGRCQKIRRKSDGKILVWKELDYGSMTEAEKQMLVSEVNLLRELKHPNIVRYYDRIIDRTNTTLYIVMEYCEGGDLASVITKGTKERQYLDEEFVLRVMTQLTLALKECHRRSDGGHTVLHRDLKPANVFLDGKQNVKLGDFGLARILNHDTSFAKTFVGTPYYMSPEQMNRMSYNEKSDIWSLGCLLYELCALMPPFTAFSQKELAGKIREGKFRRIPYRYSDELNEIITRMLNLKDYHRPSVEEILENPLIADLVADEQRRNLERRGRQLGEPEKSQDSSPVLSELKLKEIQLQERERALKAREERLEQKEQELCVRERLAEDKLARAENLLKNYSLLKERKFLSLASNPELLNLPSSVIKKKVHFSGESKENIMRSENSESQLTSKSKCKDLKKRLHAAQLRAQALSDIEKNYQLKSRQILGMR

[7] = WST-1 cytotoxicity assay on Jurkat cells (T-cell line); assay type: cell-based, human; details: human, Jurkat cells (T-cell line), mean of 4 independent measures, read-out: Cytotoxicity, WST-1 Jurkat IC 50 (µM) Mean
[8] = WST-1 cytotoxicity assay on RPMI1788 cells (B-cell line); assay type: cell-based, human; details: human, RPMI1788 cells (B-cell line), mean of 4 independent measures, read-out: Cytotoxicity, WST-1 RPMI 1788 IC 50 (µM) Mean
[9] = tested on: human PBMCs (responder cells) with RPMI1788 stimulator cells; experiment: Mixed Lymphocyte Reaction (MLR, T cell assay), 3H-thymidine incorporation; assay type: cell-based; details: for IC50: Homo sapiens, RPMI-1788, mean of 4 independent measures, read-out: T-cell efficacy, MLR IC 50 (µM) Mean
Protocol: In order to test the efficacy and selectivity of the hit compounds on B-cells, 4 assays were performed: B-cell assay, Mixed Lymphocyte Reaction (MLR), WST-1 assay on RPMI1788 cells (B-cell line) and cytotoxicity WST-1 assay on Jurkat cells (T-cell line). Compounds were prepared as 10 mM stock solutions in dimethylsulfoxide (DMSO)and were tested at 50-10-1-0.1-0.01 and 0.001 μM in the 4 assays.
Blood samples of healthy volunteers were collected at the Red Cross of Mechelen, Belgium. Each donor consents to the use of their blood for research purposes. […] The human B cell line RPMI1788 (American Type Culture Collection, USA) and the human T cell line Jurkat (European Collection of Cell Cultures, ECACC, England) were maintained in RPMI1640 culture medium (BioWhittaker®, Lonza, Verviers, Belgium) containing 10% foetal calf serum (FCS, HyClone® Thermo Scientific, United Kingdom) and 5 μg/mL gentamicin sulphate (BioWhittaker®, Lonza, Verviers, Belgium) at 37°C and 5% CO2.
MLR assay (T cell assay): Freshly isolated human PBMCs (responder cells) were resuspended in RPMI1640 medium containing 10% FCS and 5nμg/mL gentamicin sulphate. RPMI1788 cells (stimulator cells) were inactivated by treatment with mitomycin C (Kyowa®, Takeda Belgium, Brussels, Belgium) for 20 min at 37°C, washed and finally suspended in culture medium. An amount of 100 μL of each cell suspension was mixed with 20 μL of diluted compound. The mixed cells were cultured at 37°C for 6 days in 5% CO2. DNA synthesis was assayed by the addition of 10 μCi (methyl-3H) thymidine (Perkin Elmer, Zaventem, Belgium) per well during the last 18 h in culture. Thereafter, the cells were harvested on glass filter paper and the counts per minute determined in a liquid scintillation counter (TopCount, Perkin Elmer, Zaventem, Belgium).

[10] = tested on: human CD19+ B cells; experiment: B-cell assay: IgG production of ODN2006-stimulated primary B cells (AlphaLISA); assay type: cell-based; details: Homo sapiens, B-cell, 168 h
Protocol: Compounds were prepared as 10 mM stock solutions in dimethylsulfoxide (DMSO)and were tested at 50-10-1-0.1-0.01 and 0.001 μM in the 4 assays.
Blood samples of healthy volunteers were collected at the Red Cross of Mechelen, Belgium.
Highly purified naive peripheral human B cells were separated from fresh human PBMCs on magnetic columns by positive selection using CD19 magnetic beads according to the manufacturer’s instructions (MACS Miltenyi Biotech, Leiden, The Netherlands). […] Freshly isolated human CD19+ B cells were then plated at 25 000 cells per well in a 384-well plate (Perkin Elmer, Zaventem, Belgium) in 55 μL in DMEM medium containing 10% FCS and 5 μg/mL gentamicin sulphate. After 7 days of stimulation with 0.1 μM ODN2006 (InvivoGen, Toulouse, France), supernatant was taken for analysis of IgG using the AlphaLISA human IgG kit according to the manufacturer’s instructions (Perkin Elmer, Zaventem, Belgium).

[11] = 1 uM, Average, read-out: % Enzyme Activity (relative to DMSO controls), Average
[12] = 1 uM, replicate Data 1, read-out: % Enzyme Activity (relative to DMSO controls), Data 1
[13] = 1 uM, replicate Data 2, read-out: % Enzyme Activity (relative to DMSO controls), Data 2
[14] = 10 uM, Average, read-out: % Enzyme Activity (relative to DMSO controls), Average
[15] = 10 uM, replicate Data 1, read-out: % Enzyme Activity (relative to DMSO controls), Data 1
[16] = 10 uM, replicate Data 2, read-out: % Enzyme Activity (relative to DMSO controls), Data 2
[17] = compound 1μM, relative to DMSO controls, read-out: % Enzyme activity at 1μM
[18] = compound 10μM, relative to DMSO controls, read-out: % Enzyme activity at 10μM

Compound: CC(=O)Nc1ccc(O)cc1 [Acetaminophen]
% Enzyme Activity (relative to DMSO controls), Data 1 ([1]; 1 uM): 78.79% | % Enzyme Activity (relative to DMSO controls), Data 1 ([1]; 10 uM): 85.04% | % Enzyme Activity (relative to DMSO controls), Data 1 ([2]; 1 uM, replicate Data 1): 106.63% | % Enzyme Activity (relative to DMSO controls), Data 1 ([3]; 1 uM): 112.11% | % Enzyme Activity (relative to DMSO controls), Data 1 ([3]; 10 uM): 98.16% | % Enzyme Activity (relative to DMSO controls), Data 1 ([4]; 1 uM): 95.30% | % Enzyme Activity (relative to DMSO controls), Data 1 ([4]; 10 uM): 99.39%

% Enzyme Activity (relative to DMSO controls), Average ([1]; 1 uM): 70.23% | % Enzyme Activity (relative to DMSO controls), Average ([1]; 10 uM): 72.94% | % Enzyme Activity (relative to DMSO controls), Average ([5]; 1 uM, Average): 102.81% | % Enzyme Activity (relative to DMSO controls), Average ([5]; 10 uM, Average): 107.54% | % Enzyme Activity (relative to DMSO controls), Average ([2]; 1 uM, Average): 107.32% | % Enzyme Activity (relative to DMSO controls), Average ([3]; 1 uM): 109.45% | % Enzyme Activity (relative to DMSO controls), Average ([3]; 10 uM): 99.12% | % Enzyme Activity (relative to DMSO controls), Average ([4]; 1 uM): 98.03% | % Enzyme Activity (relative to DMSO controls), Average ([4]; 10 uM): 95.14%
Compound: O=C(N[C@H](CO)[C@H](O)c1ccc([N+](=O)[O-])cc1)C(Cl)Cl [Chloramphenicol]

remaining activity at 1 µM [6, 11]: 97.9% | remaining activity at 1 µM [6, 12]: 94.5% | remaining activity at 1 µM [6, 13]: 101% | remaining activity at 10 µM [6, 14]: 50.7% | remaining activity at 10 µM [6, 15]: 44.7% | remaining activity at 10 µM [6, 16]: 56.7% | remaining activity at 1 µM [6, 17]: 97.9% | remaining activity at 10 µM [6, 18]: 50.7% | remaining activity at 1 µM [2, 11]: 106% | remaining activity at 1 µM [2, 12]: 107% | remaining activity at 1 µM [2, 13]: 104% | remaining activity at 10 µM ([2]; Average, read-out: % Enzyme Activity (relative to DMSO controls), Average): 84.8% | remaining activity at 10 µM ([2]; replicate Data 1, read-out: % Enzyme Activity (relative to DMSO controls), Data 1): 84.6% | remaining activity at 10 µM ([2]; replicate Data 2, read-out: % Enzyme Activity (relative to DMSO controls), Data 2): 85.1%
Compound: CC/C(=C(/CC)c1ccc(O)cc1)c1ccc(O)cc1 [Diethylstilbestrol, reference compound]
IC50 at 48 h [7]: 6.7 µM | IC50 at 48 h [8]: 31.4 µM

remaining activity at 1 µM [5, 11]: 108% | remaining activity at 1 µM [5, 12]: 108% | remaining activity at 1 µM [5, 13]: 108% | remaining activity at 10 µM [5, 14]: 41.1% | remaining activity at 10 µM [5, 15]: 42.6% | remaining activity at 10 µM [5, 16]: 39.5% | remaining activity at 1 µM [5, 17]: 108% | remaining activity at 10 µM [5, 18]: 41.1% | IC50 ([10]; IgG production, ODN2006 0.1 μM, 7 days, mean of 4 independent experiments, read-out: B-cell IC50): 5.9 µM
Compound: Cc1cc(C#N)cc(C)c1Oc1nc(Nc2ccc(C#N)cc2)nc(N)c1Br [Etravirine, reference compound]
IC50 [9]: 7.27 µM | Selectivity Index (SI) MLR/B-cell ([9]; ratio of IC50 values): 1.23 | IC50 at 48 h [7]: 30.4 µM | IC50 at 48 h [8]: 8 µM

% Enzyme Activity (relative to DMSO controls), Average ([1]; 1 uM): 74.38% | % Enzyme Activity (relative to DMSO controls), Data 1 ([1]; 1 uM): 77.32% | % Enzyme Activity (relative to DMSO controls), Data 2 ([1]; 1 uM): 71.43% | % Enzyme Activity (relative to DMSO controls), Average ([1]; 10 uM): 75.76% | % Enzyme Activity (relative to DMSO controls), Data 1 ([1]; 10 uM): 77.92% | % Enzyme Activity (relative to DMSO controls), Data 2 ([1]; 10 uM): 73.60% | % Enzyme Activity (relative to DMSO controls), Average ([5]; 1 uM, Average): 99.23% | % Enzyme Activity (relative to DMSO controls), Data 1 ([5]; 1 uM, replicate Data 1): 98.18% | % Enzyme Activity (relative to DMSO controls), Data 2 ([5]; 1 uM, replicate Data 2): 100.27% | % Enzyme Activity (relative to DMSO controls), Average ([5]; 10 uM, Average): 102.28% | % Enzyme Activity (relative to DMSO controls), Data 1 ([5]; 10 uM, replicate Data 1): 99.63% | % Enzyme Activity (relative to DMSO controls), Data 2 ([5]; 10 uM, replicate Data 2): 104.92% | % Enzyme Activity (relative to DMSO controls), Average ([3]; 1 uM): 114.18% | % Enzyme Activity (relative to DMSO controls), Data 1 ([3]; 1 uM): 116.14% | % Enzyme Activity (relative to DMSO controls), Data 2 ([3]; 1 uM): 112.22% | % Enzyme Activity (relative to DMSO controls), Average ([3]; 10 uM): 104.62% | % Enzyme Activity (relative to DMSO controls), Data 1 ([3]; 10 uM): 110.58% | % Enzyme Activity (relative to DMSO controls), Data 2 ([3]; 10 uM): 98.66% | % Enzyme Activity (relative to DMSO controls), Average ([4]; 1 uM): 102.86% | % Enzyme Activity (relative to DMSO controls), Data 1 ([4]; 1 uM): 105.83% | % Enzyme Activity (relative to DMSO controls), Data 2 ([4]; 1 uM): 99.88% | % Enzyme Activity (relative to DMSO controls), Average ([4]; 10 uM): 91.65% | % Enzyme Activity (relative to DMSO controls), Data 1 ([4]; 10 uM): 91.79% | % Enzyme Activity (relative to DMSO controls), Data 2 ([4]; 10 uM): 91.51%
Compound: C[C@]12CCC(=O)C=C1CC[C@@H]1[C@@H]2[C@@H](O)C[C@@]2(C)[C@H]1CC[C@]2(O)C(=O)CO [Hydrocortisone]

remaining activity at 1 µM [6, 11]: 70.1% | remaining activity at 1 µM [6, 12]: 67.7% | remaining activity at 1 µM [6, 13]: 72.5% | remaining activity at 10 µM [6, 14]: 68.7% | remaining activity at 10 µM [6, 15]: 69.6% | remaining activity at 10 µM [6, 16]: 67.8% | remaining activity at 1 µM [6, 17]: 70.1% | remaining activity at 10 µM [6, 18]: 68.7%
Compound: CN1CCN(CCCN2c3ccccc3Sc3ccc(Cl)cc32)CC1 [Prochlorperazine, reference compound]
IC50 at 48 h [7]: 21.9 µM | IC50 at 48 h [8]: 9.63 µM

Compound: C[C@@H]1CCN(C(=O)CC#N)C[C@@H]1N(C)c1ncnc2[nH]ccc12 [Tofacitinib]
IC50 at 48 h [7]: > 50 µM | IC50 at 48 h [8]: > 50 µM

Compound: N[C@@H](Cc1cc(I)c(Oc2ccc(O)c(I)c2)c(I)c1)C(=O)O [Triiodothyronine]
IC50 [9]: 44.2 µM | IC50 at 48 h [7]: > 50 µM | IC50 ([10]; read-out: B-cell IC50 (μM)): 36.8 µM
